Measurements: ChEMBL document CHEMBL4417629, “Inhibitors of RAD52 Recombination Protein and Methods Using Same” (2018)
Calls of active or inactive are those of the source. The calls are words filed in the database; no cut-off is given here.

Experiments:
[1] = target: T1, DNA repair protein RAD51 homolog 1 (Homo sapiens) (UniProt Q06609); test: Inhibition of RAD51 (unknown origin) assessed as inhibition of DNA pairing by measuring D-loop formation between [32P]-ssDNA and homologous supercoiled pUC19 DNA at 10 times RAD52 IC50 incubated for 15 mins by gel electrophoresis method relative to control
T1 sequence (whole entry): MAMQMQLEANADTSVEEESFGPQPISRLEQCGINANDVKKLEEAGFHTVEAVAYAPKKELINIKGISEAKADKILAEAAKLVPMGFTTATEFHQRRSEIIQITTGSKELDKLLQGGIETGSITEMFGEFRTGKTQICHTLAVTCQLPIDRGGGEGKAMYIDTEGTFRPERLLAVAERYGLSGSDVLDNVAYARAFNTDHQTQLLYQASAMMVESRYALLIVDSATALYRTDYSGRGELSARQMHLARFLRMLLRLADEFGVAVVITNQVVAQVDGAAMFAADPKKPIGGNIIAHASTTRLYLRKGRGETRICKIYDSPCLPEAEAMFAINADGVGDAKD

[2] = organism: Homo sapiens; test: Growth inhibition of BRCA1-deficient human UWB1.289 cells at 2.5 to 10 uM following media refreshment every 3 days and measured on day 10 by CellTiter-Glo assay; type: functional
[3] = target: T2, DNA repair protein RAD52 homolog (Homo sapiens) (UniProt P43351); test: Inhibition of RAD52 (unknown origin) assessed as inhibition of DNA pairing using [32P]-ssDNA by measuring D-loop formation incubated for 15 mins by gel electrophoresis method
T2 sequence (whole entry): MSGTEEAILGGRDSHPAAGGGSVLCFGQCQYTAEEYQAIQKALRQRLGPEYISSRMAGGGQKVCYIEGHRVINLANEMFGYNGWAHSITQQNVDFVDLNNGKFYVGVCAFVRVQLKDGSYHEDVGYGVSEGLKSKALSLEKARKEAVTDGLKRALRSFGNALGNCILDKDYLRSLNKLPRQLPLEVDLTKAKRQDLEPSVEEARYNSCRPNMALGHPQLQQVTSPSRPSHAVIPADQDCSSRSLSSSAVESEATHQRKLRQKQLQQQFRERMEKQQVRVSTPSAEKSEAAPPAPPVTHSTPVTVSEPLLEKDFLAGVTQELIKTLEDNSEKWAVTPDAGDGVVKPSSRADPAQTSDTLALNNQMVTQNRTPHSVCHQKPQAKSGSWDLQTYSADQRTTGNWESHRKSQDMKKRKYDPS

[4] = target: T1, DNA repair protein RAD51 homolog 1 (Homo sapiens); test: Inhibition of RAD51 (unknown origin) assessed as inhibition of DNA pairing by measuring D-loop formation between [32P]-ssDNA and homologous supercoiled pUC19 DNA at 30 uM incubated for 15 mins by gel electrophoresis method relative to control
[5] = tested on: CAPAN-1; test: Growth inhibition of BRCA2-deficient human Capan1 cells at 2.5 to 10 uM following media refreshment every 3 days and measured on day 10 by CellTiter-Glo assay; type: functional, cell-based

Row | inhibition [1] | inhibition [3] | inhibition [4] | SMILES | growth inhibition (GI) [2] | growth inhibition (GI) [5]
1 | 108% | Dose-dependent effect | > 90% | CCCCN(CC)CCCN=C(S)Nc1ccc2nc(N3CCN(C)CC3)cc(C)c2c1 |  | 
2 | 111% | Dose-dependent effect | > 90% | CCN1CCN(CCCNC(=S)Nc2ccc3nc(N(C)CCN)cc(C)c3c2)CC1 |  | 
3 | 111% | Dose-dependent effect | > 90% | CCCN(CCC)CCCNC(=S)Nc1ccc2nc(N3CCN(C)CC3)cc(C)c2c1 |  | 

More lines, now with the values behind:

Row | SMILES | inhibition [1] | inhibition [3] | inhibition [4] | growth inhibition (GI) [2] | growth inhibition (GI) [5]
4 | Cn1nc(-c2ccc(Cl)cc2)c2cc(C(=O)NCCCN3CCCCCC3)sc21 | 48.6% | Dose-dependent effect | > 90% | Active | Active
5 | Cc1ccc(-c2nc(C(=O)NCCCN3CCOCC3)cc3c2[nH]c2ccccc23)cc1 | 73.6% | Dose-dependent effect | > 90% |  | 
6 | COc1ccc(OC)c(Nc2nc(NCCO)c3ccccc3n2)c1 | 75.1% | Dose-dependent effect | > 90% | Active | Active
7 | CN1CCN(CCCNC(=O)c2cc3c(-c4ccc(Cl)cc4)nn(C)c3s2)CC1 | 38.4% | Dose-dependent effect | > 90% |  | 
8 | Cn1nc(-c2ccc(Cl)cc2)c2cc(C(=O)NCCCN3CCCC3)sc21 | 35.3% | Dose-dependent effect | > 90% |  | 
9 | COc1ccc(-c2nc(C(=O)NCCCN3CCOCC3)cc3c2[nH]c2ccccc23)cc1OC | 93.7% | Dose-dependent effect | > 90% |  | 
